The source of these data is patent EP3543705A1, “MITOCHONDRIAL PH PROBE” (priority 2018, dated 2019).

The test system of data set [1] is mitochondria of A2780 ovarian cancer cell line. The experiment in a line: fluorescein/Cy5 fluorescence ratio in stained live cells treated with nigericin or FCCP. Format: cell-based. Particulars: 300 nM FCCP or 2uM nigericin versus DMSO vehicle control; cells stained with 2 µM 5FA-PIP-Cy5-DA. How it is done: A2780 ovarian cancer cells were cultured in 24-well microscopy glass bottom plates in a CO2 incubator. […] Separate fluorescent images in green (488/520 nm) and deep red (640/660 nm) spectral channels were acquired on Visitron W1 spinning disk confocal microscope. The florescence ratio was quantified using a specifically designed batch ImageJ plugin. This software thresholds the pH-independent Cy5 channel, quantifies the fluorescence intensity in the thresholded image areas, and uses the thresholded mask to quantify the intensity of pH-dependent 5Fluo channel. The intensity ratio is then used to estimate the mitochondrial pH of the cells. […] Typical pH variations in mitochondria of A2780 ovarian cancer cell line are represented at Figure 4. Typical staining procedure is described further. […] All images are maximum intensity projection. […] The mitochondrial staining on Figure 4A is very homogeneous. […] The mitochondrial staining on Figure 4B is very heterogeneous, unlike the Figure 4A. Figure 4C represents the overlap image of Figure 4A and Figure 4B. Bluish hint Figure 4C corresponds to relatively high mitochondrial pH, reddish to relatively low mitochondrial pH. Figure 4D represents bright field image. […] Confocal images were acquired for control, FCCP- and nigericin-treated cell samples, and the ratio between fluorescein and Cy5 channel fluorescence was quantified.

Data set [2] has the same test system. The experiment in a line: probe calibration in defined-pH buffers: collapse of the mitochondrial pH gradient. Format: cell-based. To be noted: stained cells in high K+ buffers, pH range 6.73 to 8.36.
Experimental: A2780 ovarian cancer cells were cultured in 24-well microscopy glass bottom plates in a CO2 incubator. Prior to imaging, the cells were stained with 2uM 5FA-PIP-Cy5-DA, and/or TMRM (20nM) for 30 min in bicarbonate-free DMEM medium to avoid extracellular pH fluctuations, then washed with the same medium (without 5FA-PIP-Cy5-DA) and imaged with confocal spinning disk microscopy at 60x magnification When TMRM was used, this dye was also present in the bicarbonate-free DMEM medium during the imaging of the cells. Separate fluorescent images in green (488/520 nm) and deep red (640/660 nm) spectral channels were acquired on Visitron W1 spinning disk confocal microscope. The florescence ratio was quantified using a specifically designed batch ImageJ plugin. This software thresholds the pH-independent Cy5 channel, quantifies the fluorescence intensity in the thresholded image areas, and uses the thresholded mask to quantify the intensity of pH-dependent 5Fluo channel. The intensity ratio is then used to estimate the mitochondrial pH of the cells. Calibration of the intensity ratio was achieved through the staining of A2780 cells in a series of PBS - 5% BSA buffers with defined pH, containing 20mM HEPES and 5uM FCCP, to equilibrate the mitochondrial pH with the pH of the buffer.
The stained cells were treated with FCCP in high K^+ buffers in a pH range of 6.73 to 8.36.
In data set [3] the test system is A2780 cells. The data set can be described thus: mitochondrial pH of drug-treated cells, measured with 5FA-PIP-Cy5-DA. Format: cell-based. An excerpt:
The calibration curve for the ratio of 5Fluoro/Cy5 fluorescence was obtained using FCCP and a PBS-5% BSA buffer with A2780 cells in a manner analogous to the method described in Example 2 (see Figure 12). The quantifying of mitochondrial pH in the presence of the drug and after the drug was washed away allowed the distinction between interference with mitochondrial metabolism and general cytotoxicity. If the effect of the drug was primarily to affect mitochondrial metabolism it was expected that the mitochondrial pH would quickly return to the non-treated cell level following removal of the drug, providing the drug had no other significant cytotoxic effects. Conversely, if the effect of the drug were not reversed by the washing step, an observed alteration of mitochondrial pH could be interpreted at least partially as a downstream consequence of the general cytotoxicity of the drug. A2780 cells were cultured in 24-well microscopy glass bottom plates in RPMI medium, containing Glutamax with 10% FBS addition. The cells were treated with appropriate 800uM […] or 5uM cisplatin. […] If the drug was not washed away prior to staining, it remained present in the medium through the whole imaging time. Separate fluorescent images in green and deep red spectral channels were acquired. The florescence ratio was quantified by a specifically designed batch ImageJ plugin as described above. Statistical analysis was performed using 1-way ANOVA with Bonferroni-Holm post-hoc analysis.

Data set [4] is described as follows: pH dependence of fluorescence at 520 nm of the active probe (pKa study). Format: physicochemical. Particulars: PBS buffer with 5% BSA, estimated. How it is done: The pH dependence for fluorescence at 520 nm of 5FA-PIP-Cy5, the active form of 5FA-PIP-Cy5-DA was measured with 5FA-PIP-Cy5 dissolved in a PBS buffer with 5% BSA. (see Figure 3). From this study the pKa of the active form was estimated to be 6.88. This value is within expectable range for the fluorescein moiety containing electron-donor amide group and is within the physiologically relevant range of 6.5 - 8.5.

The test system of data set [5] is A2780 cells. The data set can be described thus: mitochondrial staining with the inactive (caged) form versus the active form. Format: cell-based. To be noted: 2uM, identical conditions.
For the next data set, the system named is LT-HSC. The experiment in a line: mitochondrial pH of hematopoietic stem cells in different culture conditions, measured with 5FA-PIP-Cy5-DA. Particulars: LT-HSC cultured with 5 uM DMOG or IL-3 20 ng/mL and IL-6 100ng/mL, compared with basal medium, ST-HSC and MPP. Format: cell-based, mice. An excerpt: For LT-HSC cells, three different culture conditions (basal medium, DMOG-induced chemical hypoxia and IL-3, IL-6 - induced differentiation) were examined. The calibration curve for the ratio of 5Fluoro/Cy5 fluorescence was obtained using FCCP and a PBS-5% BSA buffer with MPP cells in a manner analogous to the method described in Example 2 (see Figure 10). Fresh cells, extracted from bone marrow of 8-12 week old male mice were stained on ice for surface cell markers and sorted by FACS, according to the following phenotypes: LT-HSC Lin- cKit+ Sca1+ CD150+ CD34- CD48-; ST-HSC Lin- cKit+ Sca1 + CD150+ CD34+; MPP Lin- cKit+ Sca1 + CD150- CD34+. The cells were cultured in Hematopoietic Stemline II (Sigma) medium with addition of SCF and Flt-3 cytokines. For appropriate experiments, additionally 5 uM DMOG or IL-3 20 ng/mL and IL-6 100ng/mL cytokines were added. […] Separate fluorescent images in green and deep red spectral channels were acquired. The florescence ratio was quantified by a specifically designed batch ImageJ plugin as described above.

Where [6] appears, read: after the drug was washed away, treated one day with 800uM RAPTA-T or 5uM cisplatin, control cells pH 8.4.
Setting [7] is: in the presence of the drug, treated one day with 800uM RAPTA-T or 5uM cisplatin, control cells pH 8.4.

As for `N#CC(C#N)=NNc1ccc(OC(F)(F)F)cc1` [FCCP, carbonylcyanide-4-trifluoromethoxyphenylhydrazone], the 5Fluo-Cy5 ratio entry in data set [1] is recorded as “clear measurable decrease”. For the same molecule, in data set [2], the “collapse of the mitochondrial pH gradient” value is reported as “full collapse of the mitochondrial pH gradient”. As for `CC[C@H]1/C=C/C=C/C[C@@H](C)[C@H](O)[C@@](C)(O)C(=O)[C@@H](C)[C@H](O)[C@@H](C)C(=O)[C@@H](C)[C@H](O)[C@@H](C)/C=C/C(=O)O[C@@H]2[C@H](C)[C@H](CC1)O[C@]1(CC[C@H](C)[C@H](C[C@@H](C)O)O1)[C@H]2C` [oligomycin], the “mitochondrial pH” value in the data set on A2780 cells [3] (addition of 10µm oligomycin, increase from 8.4) is “around 8.5”.

Consider `CN1C(=CC=CC=CC2=[N+](CCCCCC(=O)N3CCN(CC(=O)Nc4ccc5c(c4)C(=O)OC54c5ccc(O)cc5Oc5cc(O)ccc54)CC3)c3ccccc3C2(C)C)C(C)(C)c2ccccc21` [5FA-PIP-Cy5], for which the “pKa of the active form” value in data set [4] is on record as 6.88. The staining of mitochondria result in the data set on A2780 cells [5] was “absolutely no staining of mitochondria”. In the case of `CO[C@@H]1C[C@@H](C[C@H]2CC[C@H](C)[C@H]([C@@H](C)C(=O)O)O2)O[C@]2(O[C@](C)([C@H]3CC[C@@](C)([C@@H]4O[C@@H]([C@H]5O[C@@](O)(CO)[C@H](C)C[C@@H]5C)C[C@@H]4C)O3)C[C@H]2C)[C@@H]1C` [nigericin], in data set [1], the 5Fluo-Cy5 ratio result is reported as “clear measurable decrease”. Besides, the “collapse of the mitochondrial pH gradient” value in data set [2] is listed as “no full gradient collapse”. Consider `N.N.[Cl][Pt][Cl]` [cisplatin], for which the “mitochondrial pH” value in the data set with A2780 cells [3] (setting [6]) is 8.0; in the data set on A2780 cells [3] (setting [7]) it was 7.8. The matching figures for `Cc1ccccc1.[Cl][Ru]([Cl])[PH]12CN3CN(CN(C3)C1)C2` [RAPTA-T]: 8.4 and 8.0. On to `COC(=O)CNC(=O)C(=O)OC` [DMOG], for which the “average mitochondrial pH” value in the data set with LT-HSC is recorded as “the same level of average mitochondrial pH”.
